In ChEMBL document CHEMBL4330164, “Propolis Components from Stingless Bees Collected on South Sulawesi, Indonesia, and Their Xanthine Oxidase Inhibitory Activity” (J Nat Prod, 2019):

Target: Xanthine dehydrogenase/oxidase (Bos taurus, UniProt P80457)
Assay: Inhibition of bovine milk xanthine oxidase assessed as reduction in uric acid production using xanthine as substrate after 10 mins by HPLC analysis; call rule not given here

Sequence of Xanthine dehydrogenase/oxidase (P80457 whole entry): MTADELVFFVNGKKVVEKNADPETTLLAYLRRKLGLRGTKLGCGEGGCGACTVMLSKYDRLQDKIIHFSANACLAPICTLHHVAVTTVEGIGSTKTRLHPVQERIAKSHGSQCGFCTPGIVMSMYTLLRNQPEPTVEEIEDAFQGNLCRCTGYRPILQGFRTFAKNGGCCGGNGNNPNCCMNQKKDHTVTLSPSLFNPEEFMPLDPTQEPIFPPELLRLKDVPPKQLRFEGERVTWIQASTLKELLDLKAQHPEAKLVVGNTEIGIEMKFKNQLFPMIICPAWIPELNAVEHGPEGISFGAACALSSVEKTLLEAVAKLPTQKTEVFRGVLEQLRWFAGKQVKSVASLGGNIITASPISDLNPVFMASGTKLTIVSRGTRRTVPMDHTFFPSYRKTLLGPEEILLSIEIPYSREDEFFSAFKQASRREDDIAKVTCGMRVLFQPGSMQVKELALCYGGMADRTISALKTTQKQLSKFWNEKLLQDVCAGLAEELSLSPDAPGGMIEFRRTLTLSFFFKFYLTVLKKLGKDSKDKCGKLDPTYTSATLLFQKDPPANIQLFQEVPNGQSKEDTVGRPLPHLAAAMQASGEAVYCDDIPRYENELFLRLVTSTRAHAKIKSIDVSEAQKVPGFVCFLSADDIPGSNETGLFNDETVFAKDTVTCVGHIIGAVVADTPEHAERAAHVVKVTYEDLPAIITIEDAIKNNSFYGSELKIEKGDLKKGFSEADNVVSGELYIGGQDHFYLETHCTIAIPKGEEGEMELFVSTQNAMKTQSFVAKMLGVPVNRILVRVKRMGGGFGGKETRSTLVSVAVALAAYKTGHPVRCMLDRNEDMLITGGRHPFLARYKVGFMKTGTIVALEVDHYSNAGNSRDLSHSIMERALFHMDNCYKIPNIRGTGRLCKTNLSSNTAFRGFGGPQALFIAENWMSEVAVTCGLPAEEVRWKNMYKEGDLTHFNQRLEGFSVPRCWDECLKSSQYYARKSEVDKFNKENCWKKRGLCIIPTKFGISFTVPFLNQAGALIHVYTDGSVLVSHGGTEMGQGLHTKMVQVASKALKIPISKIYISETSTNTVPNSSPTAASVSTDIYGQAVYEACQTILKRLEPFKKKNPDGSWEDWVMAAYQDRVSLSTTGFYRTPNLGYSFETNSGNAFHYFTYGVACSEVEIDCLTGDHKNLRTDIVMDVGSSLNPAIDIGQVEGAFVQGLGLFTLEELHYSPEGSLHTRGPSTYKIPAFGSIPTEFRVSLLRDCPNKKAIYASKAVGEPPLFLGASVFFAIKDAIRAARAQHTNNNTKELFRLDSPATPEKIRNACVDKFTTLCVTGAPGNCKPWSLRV

Row | IC50 [µM] | inhibition (INH) (cattle, 10 min) | SMILES
1 | 3.9 | – | COc1cc(-c2c(O)c(=O)oc3cc(O)cc(O)c23)ccc1O
2 | – | Active | COc1cc([C@@H]2c3c(cc4c(c3OC)OCO4)C[C@@H]3COC[C@H]32)cc2c1OCO2
